From patent US7101872B2, “Farnesyl dibenzodiazepinone, and processes for its production” (Ecopia BioSciences, Inc., priority 2003, dated 2006)

Legend:
GL26 = test: Antiproliferative study, glioma cell lines (MTT); assay type: cell-based, Human; details: Mus musculus, GL26, Glioblastoma, 96 hrs
Procedure: Cells were passaged once a week. Prior to use the cells were detached from the culture flask by treating with trypsin for five to ten minutes. The cells were counted with a Neubauer glass slide and viability assessed by 0.25% trypan blue exclusion. Only flasks with >95% cell viability, were used in the study. Cell lines amplification and plating: Cells, 5×10^3 cells per well in 100 μL drug-free medium supplemented with 10% serum, were plated in 96-well flat bottom microtiter plates and incubated at 37° C. for 48 hrs before treatment. Evaluation of inhibitory activity on cell proliferation: Cells (in triplicate wells) were incubated 96 hrs with medium containing different concentrations of ECO-04601, starting at 5.0 μg/ml (10 μM). The compound was used in a solution of 1% DMSO in D-MEM or RPMI media (or other equivalent media). […] The optical density was measured before incubation (time 0) and following 96 hrs of incubation with test compound in order to measure the growth rate of each cell line.
At the end of the cell treatment, cell culture media was replaced with 150 μl of fresh medium containing 10 mM of 4-(2-hydroxyethyl)-1-piperazineethanesulfonic acid buffer, pH 7.4. […] The optical density was read in each well using a single wavelength spectrophotometer plate reader at 570 nm. […]

9L = test: Antiproliferative study, glioma cell lines (MTT); assay type: cell-based; details: Rattus norvegicus, Gliosarcoma, 96 hrs
Procedure: (§1) Cells were passaged once a week. Prior to use the cells were detached from the culture flask by treating with trypsin for five to ten minutes. The cells were counted with a Neubauer glass slide and viability assessed by 0.25% trypan blue exclusion. Only flasks with >95% cell viability, were used in the study. Cell lines amplification and plating: Cells, 5×10^3 cells per well in 100 μL drug-free medium supplemented with 10% serum, were plated in 96-well flat bottom microtiter plates and incubated at 37° C. for 48 hrs before treatment. Evaluation of inhibitory activity on cell proliferation: Cells (in triplicate wells) were incubated 96 hrs with medium containing different concentrations of ECO-04601, starting at 5.0 μg/ml (10 μM). The compound was used in a solution of 1% DMSO in D-MEM or RPMI media (or other equivalent media). The concentrations of ECO-04601 were as follows: 10 μM (5.0 μg/ml), 1 μM (0.50 μg/ml), 0.5 μM (0.25 μg/ml), 0.1 μM (0.050 μg/ml), […] (0.025 μg/ml), 0.01 μM (0.0050 μg/ml), 0.001 μM (0.00050 μg/ml). Negative controls were cells treated with vehicle alone (1% DMSO in culture medium). Positive controls were cells treated with 4 to 6 increasing concentrations of cisplatin (CDDP) (data not shown). The optical density was measured before incubation (time 0) and following 96 hrs of incubation with test compound in order to measure the growth rate of each cell line.
(§2) At the end of the cell treatment, cell culture media was replaced with 150 μl of fresh medium containing 10 mM of 4-(2-hydroxyethyl)-1-piperazineethanesulfonic acid buffer, pH 7.4. Then 50 μl of 2.5 mg/ml of 3-(4,5-dimethylthiazo-2-yl)-2,5-diphenyltetrazolium bromide in PBS pH 7.4, were added to each well and the culture plates incubated for 4 hrs at 37° C. The resulting supernatant was removed and formazan crystals were dissolved with 200 μl of DMSO followed by 25 μl of glycine buffer (0.1 M glycine plus 0.1 M NaCl, pH 10.5). The optical density was read in each well using a single wavelength spectrophotometer plate reader at 570 nm. […] Each of the cell lines was tested in at least 3 independent experiments.

C6 = test: Antiproliferative study, glioma cell lines (MTT); assay type: cell-based; details: Rattus norvegicus, C6, Glioblastoma, 96 hrs
Procedure: as §1, §2

DN = test: Antiproliferative study, glioma cell lines (MTT); assay type: cell-based; details: Homo sapiens, Oligodendroglioma, 96 hrs
Procedure: as §1, §2

GHA = test: Antiproliferative study, glioma cell lines (MTT); assay type: cell-based; details: Homo sapiens, Oligodendroglioma, 96 hrs
Procedure: as §1, §2

GHD = test: Antiproliferative study, glioma cell lines (MTT); assay type: cell-based; details: Homo sapiens, Astrocytoma, 96 hrs
Procedure: as §1, §2

U 373 = test: Antiproliferative study, glioma cell lines (MTT); assay type: cell-based; details: Homo sapiens, U373 MG, U 373, Astrocytoma, 96 hrs
Procedure: as §1, §2

[1] = system: C6 glioblastoma cell-bearing mice; test: In vivo glioma model, treatment from day 10 after inoculation; set-up: species or system Mus musculus nude mice; details: 20–30 mg/kg; versus vehicle-treated mice (FIG. 11)
Procedure: The aim of this study was to test whether ECO-04601 administered by i.p. route prevents or delays tumor growth in C6 glioblastoma cell-bearing mice, and to determine an effective dosage regimen.
Animal experiments were performed according to ethical guidelines of animal experimentation (Charte du comité d'éthique du CNRS, juillet 2003) and the English guidelines for the welfare of animals in experimental neoplasia (WORKMAN, P., […], P., BALKWILL, F., et al. (1998). United Kingdom Coordinating Committee on Cancer Research (UKCCCR) Guidelines for the welfare of animals in experimental neoplasia (Second Edition, July 1997; British Journal of Cancer 77:1–10). Any dead or apparently sick mice were promptly removed and replaced with healthy mice. Sick mice were euthanized upon removal from the cage. Animals were maintained in rooms under controlled conditions of temperature (23±2° C.), humidity (45±5%), photoperiodicity (12 hrs light/12 hrs dark) and air exchange. […] The cells were counted in a hemocytometer and their viability assessed by 0.25% trypan blue exclusion. […]
In a second series of experiments, treatment started at day 10 following inoculation of C6 cells when tumors became palpable (around 100 to 200 mm^3). […] Tumor volume was measured every second day until the end of the treatment using callipers. […]

IC50 (GL26): 8.93 ± 1.1 µM
IC50 (9L): 6.82 ± 2.9 µM
IC50 (C6): 4.28 ± 2.82 µM
IC50 (DN): 3.26 ± 0.93 µM
IC50 (GHA): 1.78 ± 0.84 µM
IC50 (GHD): 6.29 ± 2.98 µM
IC50 (U 373): 3.83 ± 1.37 µM
Structure (SMILES): CC(C)=CCC/C(C)=C/CC/C(C)=C/CN1C(=O)c2cccc(O)c2Nc2c(O)cc(O)cc21 [ECO-04601, 10-farnesyl-4,6,8-trihydroxy-dibenzodiazepin-11-one]
Histological analysis of tumor sections [1]: cell density was decreased and the nuclei of remaining tumor cells appeared larger and pycnotic
